One assay addresses T1, human CDK4/cyclin D3 (Homo sapiens, UniProt P11802).
T1 construct: made in house; host or cells: insect cells co-infected with baculovirus vectors
The assay is described as follows: Inhibition of CDK4/cyclin D retinoblastoma kinase activity (Ki; % inhibition). The assay is classed as biochemical. Conditions: for Ki: apparent Ki, CDK4/cyclin D3, Rb substrate. Summed up:
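Insect-cell-expressed CDK4 with truncated cyclin D3 (1-264), 5 nM, phosphorylating His-tagged Rb fragment (386-928) with 25 μM [32/33P]ATP at pH 7.4, 30 °C, 20 min (60 min for tight binders). Filter capture, phosphorimager read; % inhibition at 30 nM compound, Ki from competitive or tight-binding fits.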

For another assay, the target named is T2, CDK2/cyclin A (Homo sapiens, UniProt P24941).
T2 construct: made in house; host or cells: CDK2: insect cells (baculovirus); cyclin A: E. coli
The experiment in a line: Inhibition of CDK2/cyclin A retinoblastoma kinase activity (Ki; % inhibition). The note with it: for Ki: apparent Ki, CDK2/cyclin A, Rb substrate. The class given is biochemical. Summed up:
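Radiometric filter assay of CDK2/proteolyzed cyclin A (baculovirus-expressed human CDK2, 10 or 19 nM) phosphorylating an Rb fragment with 25 μM [³²P/³³P]ATP in pH 7.4 HEPES, 2% DMSO, at 30 °C for 60 or 75 min under initial-rate conditions. Library compounds screened at 30 nM for % inhibition; apparent Ki from concentration series fit to competitive or tight-binding inhibition equations.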

In a further assay the test system is HCT-116 cell line. The assay is described as follows: Inhibition of cell growth, MTT tetrazolium salt assay. The class given is cell-based. The note with it: for IC50: Homo sapiens, HCT-116, 120 h, MTT, three to five days. An outline of the steps: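 Cells in McCoy's 5A medium were given 4 h before compound addition in 0.5% (v/v) DMSO, then incubated 3–5 days at 37 °C, 5% CO2. After 4 h with 0.2 mg/mL MTT, DMSO-solubilized formazan was read at 540 nm; 50% and 90% growth-inhibitory concentrations came from semi-log plots against vehicle controls.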

Setting [1] is: HCT-116 cells, 0.25 μM compound.

Where a name gives a salt, the structure may show the parent alone.

One may read the IC50 as the midpoint of a concentration-inhibition curve.

T1 sequence (P11802 whole entry): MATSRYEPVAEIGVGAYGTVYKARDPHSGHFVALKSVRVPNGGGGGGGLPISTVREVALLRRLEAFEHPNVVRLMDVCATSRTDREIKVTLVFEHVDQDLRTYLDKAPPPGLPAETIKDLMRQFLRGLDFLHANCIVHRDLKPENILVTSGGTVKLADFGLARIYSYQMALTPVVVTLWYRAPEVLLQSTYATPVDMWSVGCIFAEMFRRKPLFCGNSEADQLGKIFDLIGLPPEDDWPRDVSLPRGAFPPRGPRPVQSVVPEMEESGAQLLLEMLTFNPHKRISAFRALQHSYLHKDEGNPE
T1 sequence (P30281 1-264 partner limits assumed): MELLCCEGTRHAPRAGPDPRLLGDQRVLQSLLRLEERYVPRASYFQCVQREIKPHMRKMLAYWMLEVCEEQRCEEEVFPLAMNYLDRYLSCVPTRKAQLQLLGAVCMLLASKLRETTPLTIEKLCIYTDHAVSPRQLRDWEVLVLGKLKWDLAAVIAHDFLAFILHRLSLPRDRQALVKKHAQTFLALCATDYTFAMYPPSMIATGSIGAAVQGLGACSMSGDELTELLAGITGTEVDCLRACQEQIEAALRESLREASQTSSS

Turning to `Nc1nc(Nc2ccc(C(=O)N[C@@H]3CCc4ccccc43)cc2)sc1C(=O)c1c(F)cccc1F` [Example G176], the “CDK4 % Inhibition at 0.03 μM” value on human CDK4/cyclin D3 (at 0.03 μM) is 21%. Besides, on CDK2/cyclin A (at 0.03 μM), the “CDK2 % Inhibition at 0.03 μM” value came out at 22%. The “HCT-116 % Inhibition at 0.1 μM” value with HCT-116 cell line (HCT-116, at 0.1 μM) was determined as 32%. In the assay on HCT-116 cell line (HCT-116, at 0.25 μM), the “HCT-116 % Inhibition at 0.25 μM” value is recorded as 62%.
For the compound `Cc1cccc(NC(=O)c2ccc(Nc3nc(N)c(C(=O)c4c(F)cccc4F)s3)cc2)c1` [Example G280], the “CDK4 % Inhibition at 0.03 μM” value on human CDK4/cyclin D3 (0.03 μM compound) is given as 9%. The “CDK2 % Inhibition at 0.03 μM” value at CDK2/cyclin A (0.03 μM compound) was −7%. In the assay on HCT-116 cell line (HCT-116 cells, 0.1 μM compound), the “HCT-116 % Inhibition at 0.1 μM” value was 7%. Further, the “HCT-116 % Inhibition at 0.25 μM” value in the assay with HCT-116 cell line (setting [1]) is 70%.
Taken in the same sequence, the figures for `Nc1nc(Nc2ccc(C(=O)NCc3ccc(F)c(C(F)(F)F)c3)cc2)sc1C(=O)c1c(F)cccc1F` [Example G302] were 29%, 17%, 17% and 63%.
For `CC1(C)CCC(CNC(=O)c2ccc(Nc3nc(N)c(C(=O)c4c(F)cccc4F)s3)cc2)N1` (stereo not drawn) [Example A48, 4-[4-Amino-5-(2,6-difluoro-benzoyl)-thiazol-2-ylamino]-N-(5,5-dimethyl-pyrrolidin-2RS-yl-methyl)-benzamide Hydrochloride Salt], the values for the Ki on human CDK4/cyclin D3 and on CDK2/cyclin A were 5 nM and 55 nM, respectively. In the assay on HCT-116 cell line, the IC50 is 580 nM.
`C[C@H](NC(=O)c1ccc(Nc2nc(N)c(C(=O)c3c(F)cccc3F)s2)cc1)[C@@H]1CCCN1C` [Example A69]: the figures for the Ki at human CDK4/cyclin D3 and at CDK2/cyclin A were 234 nM and 14.6 nM, respectively. Also, the IC50 with HCT-116 cell line is 2100 nM.
Take `CCN(CCO)C(=O)c1ccc(Nc2nc(N)c(C(=O)c3c(F)cccc3F)s2)cc1` [Example G25]: at human CDK4/cyclin D3 (at 0.03 μM), the “CDK4 % Inhibition at 0.03 μM” value was found to be 10%. The “CDK2 % Inhibition at 0.03 μM” value at CDK2/cyclin A (at 0.03 μM) is on record as −16%. Moreover, in the assay on HCT-116 cell line (HCT-116, at 0.25 μM), the “HCT-116 % Inhibition at 0.25 μM” value worked out at 52%.
Turning to `C[C@H](CN1CCCCC1)NC(=O)c1ccc(Nc2nc(N)c(C(=O)c3c(F)cccc3F)s2)cc1` [Example A46, 4-[4-Amino-5-(2,6-difluoro-benzoyl)-thiazol-2-ylamino]-N-(1R-methyl-2-piperidin-1-yl-ethyl)-benzamide Trifluoroacetate Salt], the Ki worked out at 15 nM at human CDK4/cyclin D3 and 220 nM at CDK2/cyclin A. Further, the IC50 with HCT-116 cell line was 86 nM.
Regarding `Nc1nc(Nc2ccc(C(=O)Nc3cccc(-c4cnco4)c3)cc2)sc1C(=O)c1c(F)cccc1F` [Example G153], the “CDK4 % Inhibition at 0.03 μM” value on human CDK4/cyclin D3 (at 0.03 μM) stood at 15%. Also, the “CDK2 % Inhibition at 0.03 μM” value at CDK2/cyclin A (at 0.03 μM) amounted to 18%. In addition, in the assay on HCT-116 cell line (HCT-116, at 0.1 μM), the “HCT-116 % Inhibition at 0.1 μM” value turned out to be 0%. In the assay on HCT-116 cell line (HCT-116, at 0.25 μM), the “HCT-116 % Inhibition at 0.25 μM” value turned out to be 66%.
On to `CCOC(=O)c1cccc(NC(=O)c2ccc(Nc3nc(N)c(C(=O)c4c(F)cccc4F)s3)cc2)c1` [Example G24], for which the “CDK4 % Inhibition at 0.03 μM” value at human CDK4/cyclin D3 (at 0.03 μM) is given as 11%. The “CDK2 % Inhibition at 0.03 μM” value on CDK2/cyclin A (at 0.03 μM) was 7%. In addition, in the assay with HCT-116 cell line (HCT-116, at 0.25 μM), the “HCT-116 % Inhibition at 0.25 μM” value stood at 58%.
With `CC(C)OCCNC(=O)c1ccc(Nc2nc(N)c(C(=O)c3c(F)cccc3F)s2)cc1` [Example A7, 4-[4-Amino-5-(2,6-difluoro-benzoyl)-thiazol-2-ylamino]-N-(2-isopropoxy-ethyl)-benzamide], the Ki at human CDK4/cyclin D3 was determined as 26 nM; at CDK2/cyclin A it was 61 nM. Besides, the IC50 in the assay with HCT-116 cell line is 410 nM.
For the compound `CC(CN(C)C)NC(=O)c1ccc(Nc2nc(N)c(C(=O)c3c(F)cccc3F)s2)cc1O` (stereo not drawn) [Example D2, 4-[4-Amino-5-(2,6-difluoro-benzoyl)-thiazol-2-ylamino]-N-(2-dimethylamino-1RS-methyl-ethyl)-2-hydroxy-benzamide], the Ki on human CDK4/cyclin D3 was 25 nM; at CDK2/cyclin A it was 51 nM. In addition, the IC50 in the assay on HCT-116 cell line is 580 nM.
Turning to `C=CCN1CCN(C(=O)c2ccc(Nc3nc(N)c(C(=O)c4c(F)cccc4F)s3)cc2)CC1` [Example G21], at human CDK4/cyclin D3 (at 0.03 μM), the “CDK4 % Inhibition at 0.03 μM” value is reported as 14%. The “CDK2 % Inhibition at 0.03 μM” value on CDK2/cyclin A (at 0.03 μM) was 3%. Moreover, in the assay on HCT-116 cell line (HCT-116, at 0.25 μM), the “HCT-116 % Inhibition at 0.25 μM” value is listed as 46%.
As for `Nc1nc(Nc2ccc(C(=O)N(CCO)Cc3ccccc3)cc2)sc1C(=O)c1c(F)cccc1F` [Example G379], the “CDK4 % Inhibition at 0.03 μM” value on human CDK4/cyclin D3 (0.03 μM compound) is 8%. For the same compound, the “CDK2 % Inhibition at 0.03 μM” value at CDK2/cyclin A (0.03 μM compound) amounted to 13%. In the assay with HCT-116 cell line (HCT-116 cells, 0.1 μM compound), the “HCT-116 % Inhibition at 0.1 μM” value is 31%. The “HCT-116 % Inhibition at 0.25 μM” value in the assay with HCT-116 cell line (setting [1]) is on record as 54%.
`CC(C)C(C)NC(=O)c1ccc(Nc2nc(N)c(C(=O)c3c(F)cccc3F)s2)cc1` (stereo not drawn) [Example G89]: at human CDK4/cyclin D3 (at 0.03 μM), the “CDK4 % Inhibition at 0.03 μM” value is −4%. In addition, the “CDK2 % Inhibition at 0.03 μM” value at CDK2/cyclin A (at 0.03 μM) is recorded as −20%. The “HCT-116 % Inhibition at 0.1 μM” value in the assay on HCT-116 cell line (HCT-116, at 0.1 μM) is on record as 30%. Moreover, the “HCT-116 % Inhibition at 0.25 μM” value in the assay with HCT-116 cell line (HCT-116, at 0.25 μM) is reported as 59%.
